From patent US7951838B2, “Substituted spirocyclic chromanamine compounds as Beta-Secretase modulators and methods of use” (Amgen Inc., priority 2007, dated 2011)

Experiments:
BACE [1] = molecular target: T1, BACE (Homo sapiens, UniProt P56817); test: In vitro enzymatic BACE FRET assay (Enzyme Assay); format: biochemical; conditions: pH 4.2, enzyme 0.2 nM, FRET substrate 50 nM
T1 construct: Cells stably expressing Amyloid Precursor Protein (APP) were plated at a density of 40K cells/well in 96 well plates; endogenous in cells
T1 sequence (P56817 46-501): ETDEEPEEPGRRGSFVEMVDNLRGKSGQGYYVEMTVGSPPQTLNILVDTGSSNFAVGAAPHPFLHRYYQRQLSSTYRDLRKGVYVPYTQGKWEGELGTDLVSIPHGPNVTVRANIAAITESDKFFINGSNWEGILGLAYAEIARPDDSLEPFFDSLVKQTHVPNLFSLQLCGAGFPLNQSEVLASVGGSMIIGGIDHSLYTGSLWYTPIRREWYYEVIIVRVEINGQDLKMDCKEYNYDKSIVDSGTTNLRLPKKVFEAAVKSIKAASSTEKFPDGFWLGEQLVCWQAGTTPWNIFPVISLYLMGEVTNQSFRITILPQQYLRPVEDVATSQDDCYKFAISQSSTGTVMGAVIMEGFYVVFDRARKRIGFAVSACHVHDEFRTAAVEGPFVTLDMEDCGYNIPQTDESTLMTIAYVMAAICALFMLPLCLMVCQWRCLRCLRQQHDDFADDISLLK
Experimental: In Vitro Enzymatic BACE FRET (Fluorescence Resonance Energy Transfer) Assay (Enzyme Assay)
Assay buffer is 0.05 M acetate, pH 4.2, 10% DMSO final, 100 uM genapol (which is a nonionic detergent, below it's Critical Micelle Concentration). Enzyme (0.2 nM) is pre-incubated for one hour with inhibitors added in 1 uL of DMSO. Then the assay is started by the addition of FRET substrate (50 nM) and incubated for one hour. The FRET assay is terminated with by addition of Tris buffer, which raises the pH to neutrality, and the fluorescence is determined The FRET substrate is a peptide with commercially available fluorophore and quencher, on opposite sides of the BACE cleavage site. Proteolytic cleavage of the FRET substrate releases quenching of fluorescence (excitation 488 nm and […]).

BACE [2] = molecular target: T1, BACE; test: BACE cell-based assay (Cell Assay), inhibition of Aβ40 by sandwich ELISA; conditions: Aβ40 in conditioned medium of cells stably expressing APP, 24 h incubation
Experimental: BACE Cell-Based Assay (Cell Assay)
The cell-based assay measures inhibition or reduction of Aβ40 in conditioned medium of test compound treated cells expressing amyloid precursor protein.
Cells stably expressing Amyloid Precursor Protein (APP) were plated at a density of 40K cells/well in 96 well plates (Costar). The cells were cultivated for 24 hours at 37° C. and 5% CO2 in DMEM supplemented with 10% FBS. The test compounds were then added to cells in 10-point dose response concentrations with the starting concentration being either 100 μM or 10 μM. The compounds were diluted from stock solutions in DMSO and the final DMSO concentration of the test compounds on cells was 0.1%. After 24 h of incubation with the test compounds the supernatant conditioned media was collected and the Aβ40 levels were determined using a sandwich ELISA. The IC50 of the compound was calculated from the percent of control or percent inhibition of Aβ40 as a function of the concentration of the test compound.
The sandwich ELISA to detect Aβ40 was performed in 96 well microtiter plates, which were pre-treated with goat anti-rabbit IgG (Pierce). The capture and detecting antibody pair that were used to detect Aβ40 from cell supernatants were affinity purified pAb40 (Biosource) and biotinylated 6E10 (Signet Labs Inc.), respectively. The optimal concentration for the pAb40 antibody was 3 μg/ml in Superblock/TBS (Pierce) that was supplemented with 0.05% Tween 20 (Sigma). Optimal concentration for the detection antibody 6E10-biotinylated was 0.5 μg/ml in Superblock/TBS (Pierce) that had been supplemented with 2% normal goat serum and 2% normal mouse serum.
Cellular supernatants were incubated with the capture antibody for 3 h at 4° C., followed by 3 wash steps in TBS-tween (0.05%). The detecting antibody incubation was for 2 h at 4° C., again followed by the wash steps as described previously. The final readout of the ELISA is Time-Resolved Fluorescence (counts per minute) using Delfia reagents Streptavidin-Europium and Enhancement solutions (Perkin Elmer) and the Victor 2 multilabel counter (Perkin Elmer).

IC50 (BACE [1]) [µM]	IC50 (BACE [2]) [µM]	SMILES
< 0.1	0.1 to 1	CC(C)(C)Cc1cnc2c(c1)[C@@H](NC[C@@H](O)[C@H](Cc1cc(F)cc(F)c1)Nc1ccnc(Cl)n1)CC1(CCC1)O2 [Example 24, (2R,3S)-3-((2-chloro-4-pyrimidinyl)amino)-4-(3,5-difluorophenyl)-1-(((4′S)-6′-(2,2-dimethylpropyl)-3′,4′-dihydrospiro[cyclobutane-1,2′-pyrano[2,3-b]pyridin]-4′-yl)amino)-2-butanol]
1 to 5	10 to 25	CC(C)(C)Cc1cnc2c(c1)[C@@H](NC[C@@H](O)[C@H](Cc1ccc(F)cc1)Nc1cc(Cl)ncn1)CC1(CCC1)O2 [Example 28, (2R,3S)-3-((6-chloro-4-pyrimidinyl)amino)-1-(((4′S)-6′-(2,2-dimethylpropyl)-3′,4′-dihydrospiro[cyclobutane-1,2′-pyrano[2,3-b]pyridin]-4′-yl)amino)-4-(4-fluorophenyl)-2-butanol]
0.1 to 1	1 to 5	CC(C)(C)Cc1cnc2c(c1)[C@@H](NC[C@@H](O)[C@H](Cc1cc(F)cc(F)c1)Nc1ncccn1)CC1(CCC1)O2 [Example 25, (2R,3S)-4-(3,5-difluorophenyl)-1-(((4′S)-6′-(2,2-dimethylpropyl)-3′,4′-dihydrospiro[cyclobutane-1,2′-pyrano[2,3-b]pyridin]-4′-yl)amino)-3-(2-pyrimidinylamino)-2-butanol]
1 to 5	10 to 25	CC(C)(C)Cc1cnc2c(c1)[C@@H](NC[C@@H](O)[C@H](Cc1ccc(F)cc1)Nc1ccnc(Cl)n1)CC1(CCC1)O2 [Example 29, (2R,3S)-3-((2-chloro-4-pyrimidinyl)amino)-1-(((4′S)-6′-(2,2-dimethylpropyl)-3′,4′-dihydrospiro[cyclobutane-1,2′-pyrano[2,3-b]pyridin]-4′-yl)amino)-4-(4-fluorophenyl)-2-butanol]
< 0.1	0.1 to 1	CCOc1c(N[C@@H](Cc2cccc(F)c2)[C@H](O)CN[C@H]2CC3(CCC3)Oc3ncc(CC(C)(C)C)cc32)c(=O)c1=O [Example 45, 3-(((1S,2R)-3-(((4′S)-6′-(2,2-dimethylpropyl)-3′,4′-dihydrospiro[cyclobutane-1,2′-pyrano[2,3-b]pyridin]-4′-yl)amino)-1-((3-fluorophenyl)methyl)-2-hydroxypropyl)amino)-4-(ethyloxy)-3-cyclobutene-1,2-dione]
5 to 10	10 to 25	CC(C)(C)Cc1cnc2c(c1)[C@@H](NC[C@@H](O)[C@H](Cc1ccc(F)cc1)Nc1ncnc3ccsc13)CC1(CCC1)O2 [Example 30, (2R,3S)-1-(((4′S)-6′-(2,2-dimethylpropyl)-3′,4′-dihydrospiro[cyclobutane-1,2′-pyrano[2,3-b]pyridin]-4′-yl)amino)-4-(4-fluorophenyl)-3-(thieno[3,2-d]pyrimidin-4-ylamino)-2-butanol]
1 to 5	10 to 25	CC(C)(C)Cc1cnc2c(c1)[C@@H](NC[C@@H](O)[C@H](Cc1cc(F)cc(F)c1)Nc1ccccc1F)CC1(CCC1)O2 [Example 26, (2R,3S)-4-(3,5-difluorophenyl)-1-(((4′S)-6′-(2,2-dimethylpropyl)-3′,4′-dihydrospiro[cyclobutane-1,2′-pyrano[2,3-b]pyridin]-4′-yl)amino)-3-((2-fluorophenyl)amino)-2-butanol]
5 to 10	10 to 25	CSc1nc(Cl)cc(N[C@@H](Cc2ccc(F)cc2)[C@H](O)CN[C@H]2CC3(CCC3)Oc3ncc(CC(C)(C)C)cc32)n1 [Example 34, (2R,3S)-3-((6-chloro-2-(methylthio)-4-pyrimidinyl)amino)-1-(((4′S)-6′-(2,2-dimethylpropyl)-3′,4′-dihydrospiro[cyclobutane-1,2′-pyrano[2,3-b]pyridin]-4′-yl)amino)-4-(4-fluorophenyl)-2-butanol]
0.1 to 1	< 0.1	CC(C)(C)Cc1cnc2c(c1)[C@@H](NC[C@@H](O)[C@H](Cc1cc(F)cc(F)c1)Nc1nccn3cnnc13)CC1(CCC1)O2 [Example 21, (2R,3S)-4-(3,5-difluorophenyl)-1-(((4′S)-6′-(2,2-dimethylpropyl)-3′,4′-dihydrospiro[cyclobutane-1,2′-pyrano[2,3-b]pyridin]-4′-yl)amino)-3-([1,2,4]triazolo[4,3-a]pyrazin-8-ylamino)-2-butanol]

Further lines, the compound ahead of its results:

SMILES	IC50 (BACE [1]) [µM]	IC50 (BACE [2]) [µM]
CCc1ccc2c(c1)[C@@H](NC[C@@H](O)[C@H](Cc1ccccc1)Nc1nccc(C(F)(F)F)n1)CC1(CCC1)O2 [Example 33, (2R,3S)-1-((S)-6-ethyl-2,2-spirocyclobutyl-chroman-4-ylamino)-4-phenyl-3-(4-(trifluoromethyl)pyrimidin-2-ylamino)butan-2-ol]	10 to 25	10 to 25
CCc1ccc2c(c1)[C@@H](NC[C@@H](O)[C@H](Cc1ccccc1)Nc1nc3ccccc3s1)CC1(CCC1)O2 [Example 42, (2R,3S)-3-(1,3-benzothiazol-2-ylamino)-1-(((4S)-6-ethyl-3,4-dihydrospiro[chromene-2,1′-cyclobutan]-4-yl)amino)-4-phenyl-2-butanol]	10 to 25	–
CCc1ccc2c(c1)[C@@H](NC[C@@H](O)[C@H](Cc1ccccc1)Nc1ccc(Cl)nn1)CC1(CCC1)O2 [Example 39, (2R,3S)-3-((6-chloro-3-pyridazinyl)amino)-1-(((4S)-6-ethyl-3,4-dihydrospiro[chromene-2,1′-cyclobutan]-4-yl)amino)-4-phenyl-2-butanol]	10 to 25	10 to 25
CCc1ccc2c(c1)[C@@H](NC[C@@H](O)[C@H](Cc1ccccc1)Nc1ccncc1)CC1(CCC1)O2 [Example 44, (2R,3S)-1-(((4S)-6-ethyl-3,4-dihydrospiro[chromene-2,1′-cyclobutan]-4-yl)amino)-4-phenyl-3-(4-pyridinylamino)-2-butanol]	–	1 to 5
O[C@H](CN[C@H]1CC2(CCC2)Oc2ccc(Br)cc21)[C@H](Cc1ccccc1)Nc1nccn2cnnc12 [Example 22, (2R,3S)-1-(((4S)-6-bromo-3,4-dihydrospiro[chromene-2,1′-cyclobutan]-4-yl)amino)-4-phenyl-3-([1,2,4]triazolo[4,3-a]pyrazin-8-ylamino)-2-butanol]	10 to 25	5 to 10
CCc1ccc2c(c1)[C@@H](NC[C@@H](O)[C@H](Cc1ccccc1)Nc1ccccc1F)CC1(CCCC1)O2 [Example 32, (2R,3S)-1-(((4S)-6-ethyl-3,4-dihydrospiro[chromene-2,1′-cyclopentan]-4-yl)amino)-3-((2-fluorophenyl)amino)-4-phenyl-2-butanol]	5 to 10	10 to 25
CCc1ccc2c(c1)[C@@H](NC[C@@H](O)[C@H](Cc1ccccc1)Nc1ncccn1)CC1(CCC1)O2 [Example 38, (2R,3S)-1-((S)-6-ethyl-2,2-spirocyclobutyl-chroman-4-ylamino)-4-phenyl-3-(pyrimidin-2-ylamino)butan-2-ol]	10 to 25	10 to 25
CCc1ccc2c(c1)[C@@H](NC[C@@H](O)[C@H](Cc1ccccc1)Nc1nc3ccccc3o1)CC1(CCC1)O2 [Example 36, (2R,3S)-3-(1,3-benzoxazol-2-ylamino)-1-(((4S)-6-ethyl-3,4-dihydrospiro[chromene-2,1′-cyclobutan]-4-yl)amino)-4-phenyl-2-butanol]	10 to 25	1 to 5
CCc1ccc2c(c1)[C@@H](NC[C@@H](O)[C@H](Cc1cccc(C#N)c1)Nc1ccccc1F)CC1(CCC1)O2 [Example 27, 3-((2S,3R)-4-(((4S)-6-ethyl-3,4-dihydrospiro[chromene-2,1′-cyclobutan]-4-yl)amino)-2-((2-fluorophenyl)amino)-3-hydroxybutyl)benzonitrile]	1 to 5	0.1 to 1
CCc1ccc2c(c1)[C@@H](NC[C@@H](O)[C@H](Cc1ccccc1)Nc1cnccn1)CC1(CCCC1)O2 [Example 40, (2R,3S)-1-(((4S)-6-ethyl-3,4-dihydrospiro[chromene-2,1′-cyclopentan]-4-yl)amino)-4-phenyl-3-(2-pyrazinylamino)-2-butanol]	–	10 to 25
